In patent US20230183243A1, “HETEROARYL DERIVATIVES AND PHARMACEUTICAL COMPOSITION COMPRISING SAME AS ACTIVE INGREDIENT” (VORONOI INC., priority 2019, published 2023):

How the values were obtained:
MDA-MB-231 cells = experiment: Inhibition of proliferation of triple-negative breast cancer cells, CellTiter-Glo; type: cell-based; details: Homo sapiens, 120 h; MDA-MB-231, cultured for 5 days
Procedure, shortened: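 MDA-MB-231 cells pre-cultured 24 h (5% CO2, 37 °C), then exposed to compound for 5 days at 12 three-fold dilutions, final 10 μM to 0.05 nM. Viability read by CellTiter-Glo luminescence after 10 min at 37 °C; growth inhibition calculated relative to untreated solvent-control cells.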

SHP-77 = experiment: Inhibition of proliferation of small cell lung cancer cells, CellTiter-Glo; type: cell-based; details: Homo sapiens, SHP77, 120 h; SHP-77, cultured for 5 days
Procedure, shortened: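 SHP-77 cells at 2,000–3,000 cells/well, cultured 24 h at 37° C, 5% CO2, then given 12 threefold compound dilutions, final 10 μM to 0.05 nM, for 5 days. Viability by CellTiter-Glo luminescence relative to solvent control. GI50 from concentration–response.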

TTK = target: T1, TTK (Homo sapiens, UniProt P33981); experiment: TTK enzyme activity, ADP-Glo kinase assay; type: biochemical; design: purchased SignalChem T20-10G; details: purified human TTK, ATP 10 μM, 25° C., 2 hours
T1 sequence (P33981 1-857): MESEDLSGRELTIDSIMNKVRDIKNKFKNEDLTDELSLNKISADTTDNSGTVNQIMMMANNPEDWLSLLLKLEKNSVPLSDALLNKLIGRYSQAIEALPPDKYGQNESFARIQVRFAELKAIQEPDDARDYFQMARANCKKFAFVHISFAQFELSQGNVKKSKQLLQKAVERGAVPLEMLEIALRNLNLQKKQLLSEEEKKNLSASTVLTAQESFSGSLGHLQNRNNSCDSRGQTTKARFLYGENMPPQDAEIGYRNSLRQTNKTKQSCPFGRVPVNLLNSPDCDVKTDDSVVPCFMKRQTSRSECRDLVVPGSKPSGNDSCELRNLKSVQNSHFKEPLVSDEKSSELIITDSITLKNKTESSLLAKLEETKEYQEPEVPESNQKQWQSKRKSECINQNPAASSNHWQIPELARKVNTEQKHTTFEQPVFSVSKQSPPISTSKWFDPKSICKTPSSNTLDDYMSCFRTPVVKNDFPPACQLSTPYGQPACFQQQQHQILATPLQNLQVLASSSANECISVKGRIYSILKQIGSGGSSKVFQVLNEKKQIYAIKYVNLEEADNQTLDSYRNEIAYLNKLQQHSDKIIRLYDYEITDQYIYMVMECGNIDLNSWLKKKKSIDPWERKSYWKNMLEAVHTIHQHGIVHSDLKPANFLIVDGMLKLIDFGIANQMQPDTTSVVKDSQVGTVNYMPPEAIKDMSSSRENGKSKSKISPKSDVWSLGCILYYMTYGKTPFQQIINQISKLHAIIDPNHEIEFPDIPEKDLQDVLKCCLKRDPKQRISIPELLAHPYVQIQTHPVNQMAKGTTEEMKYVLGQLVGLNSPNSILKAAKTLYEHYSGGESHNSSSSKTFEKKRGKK
Procedure, shortened: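 ADP-Glo read-out; percent inhibition at each compound concentration was relative to the solvent-only control. The reactions contained 25 ng enzyme, 0.2 μg substrate and 10 μM ATP in 40 mM Tris-HCl pH 7.4 with 20 mM MgCl2, 0.5 mg/mL BSA and 50 μM DTT, and ran 2 h at 25 °C.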

SMILES | GI50 (MDA-MB-231 cells) [nM] | GI50 (SHP-77) [nM] | IC50 (TTK) [nM]
COc1cc(-c2ccnn2C)ccc1Nc1nc(NC2CCOCC2)c2c(C(F)(F)F)c[nH]c2n1 [Example 106, N^2-(2-methoxy-4-(1-methyl-1H-pyrazol-5-yl)phenyl)-N^4-(tetrahydro-2H-pyran-4-yl)-5-(trifluoromethy1)-7H-pyrrolo[2,3-d] pyrimidine-2,4-diamine] | < 100 | < 100 | 50 to 200
N#Cc1c[nH]c2nc(Nc3cccc4c3OCCO4)nc(NC3CCOCC3)c12 [Example 170, 2-((2,3-dihydrobenzo[b][1,4]dioxin-5-yl)amino)-4-((tetrahydro-2H-pyran-4-yl)amino)-7H-pyrrolo[2,3-d] pyrimidine-5-carbonitrile] | < 100 | < 100 | < 50
CC(C)S(=O)(=O)CCNc1nc(Nc2ccc(-c3ccnn3C)c3c2OCCO3)nc2[nH]cc(C#N)c12 [Example 83, 4-((2-(isopropylsulfonyl)ethyl)amino)-2-((8-(1-methyl-1H-pyrazol-5-yl)-2,3-dihydrobenzo[b][1,4]dioxin-5-yl)amino)-7H-pyrrolo[2,3-d] pyrimidine-5-carbonitrile 2,2,2-trifluoroacetate] | 100 to 1000 | 100 to 1000 | < 50
COc1cc(-c2ccnn2C)c(F)cc1Nc1nc(NC2CCOCC2)c2c(C#N)c[nH]c2n1 [Example 122, 2-((5-fluoro-2-methoxy-4-(1-methyl-1H-pyrazol-5-yl)phenyl)amino)-4-((tetrahydro-2H-pyran-4-yl)amino)-7H-pyrrolo[2,3-d] pyrimidine-5-carbonitrile] | < 100 | < 100 | < 50
COc1cc(-c2ccccc2)ccc1Nc1nc(NC2CCOCC2)c2c(C#N)c[nH]c2n1 [Example 134, 2-((3-methoxy-[1,1 biphenyl]-4-yl)amino)-4-((tetrahydro-2H-pyran-4-yl)amino)-7H-pyrrolo[2,3-d] pyrimidine-5-carbonitrile] | < 100 | < 100 | < 50
Cn1nccc1-c1ccc(Nc2nc(NC3CCCCCC3)c3c(C#N)c[nH]c3n2)c2c1OCCO2 [Example 59, 4-(cycloheptylamino)-2-((8-(1-methyl-1H-pyrazol-5-yl)-2,3-dihydrobenzo[b][1,4]dioxin-5-yl)amino)-7H-pyrrolo[2,3-d] pyrimidine-5-carbonitrile] | < 100 | < 100 | 200 to 1000
COc1cc(N2CCCCS2(=O)=O)ccc1Nc1nc(NC2CCCC2)c2c(C#N)c[nH]c2n1 [Example 155, 4-(cyclopentylamino)-2-((4-(1,1-dioxido-1,2-thiazinan-2-yl)-2-methoxyphenyl)amino)-7H-pyrrolo[2,3-d] pyrimidine-5-carbonitrile] | < 100 | < 100 | < 50
COCCNc1nc(Nc2ccc(-c3c(C)noc3C)cc2OC)nc2[nH]cc(C#N)c12 [Example 96] | < 100 | < 100 | < 50
COc1cc(N2CCCCS2(=O)=O)ccc1Nc1nc(NC2CCOCC2)c2c(C#N)c[nH]c2n1 [Example 163, 2-((4-(1,1-dioxido-1,2-thiazinan-2-yl)-2-methoxyphenyl)amino)-4-((tetrahydro-2H-pyran-4-yl)amino)-7H-pyrrolo[2,3-d] pyrimidine-5-carbonitrile] | < 100 | < 100 | < 50
O=C1CCCN1c1ccc(Nc2nc(NC3CCOCC3)c3c(C(F)(F)F)c[nH]c3n2)c2c1OCCO2 [Example 108, 1-(8-((4-((tetrahydro-2H-pyran-4-yl)amino)-5-(trifluoromethyl)-7H-pyrrolo[2,3-d]pyrimidin-2-yl)amino)-2,3-dihydrobenzo[b][1,4]dioxin-5-yl)pyrrolidin-2-one] | 100 to 1000 | 100 to 1000 | < 50
COc1cc(-c2c(C)noc2C)ccc1Nc1nc(NC2C[C@H]3CC[C@@H]2C3)c2c(C#N)c[nH]c2n1 (stereo partly drawn) [Example 146, 4-(((1R,4S)-bicyclo[2.2.1]heptan-2-yl)amino)-2-((4-(3,5-dimethylisoxazol-4-yl)-2-methoxyphenyl)amino)-7H-pyrrolo[2,3-d] pyrimidine-5-carbonitrile] | < 100 | < 100 | < 50

Second part, the compound after the results:

GI50 (MDA-MB-231 cells) [nM] | GI50 (SHP-77) [nM] | IC50 (TTK) [nM] | SMILES
100 to 1000 | 100 to 1000 | 200 to 1000 | COc1cc(-c2ccnn2C)ccc1Nc1nc(C2=CCCCC2)c2c(C#N)c[nH]c2n1 [Example 129, 4-(cyclohex-1-en-1-yl)-2-((2-methoxy-4-(1-methyl-1H-pyrazol-5-yl)phenyl)amino)-7H-pyrrolo[2,3-d] pyrimidine-5-carbonitrile]
< 100 | < 100 | < 50 | COc1cc(Nc2nc(NC3CCOCC3)c3c(C#N)c[nH]c3n2)ccc1-c1ccnn1C [Example 119, 2-((3-methoxy-4-(1-methyl-1H-pyrazol-5-yl)phenyl)amino)-4-((tetrahydro-2H-pyran-4-yl)amino)-7H-pyrrolo[2,3-d] pyrimidine-5-carbonitrile]
< 100 | < 100 | 50 to 200 | Cn1cc(-c2ccc(Nc3nc(NC4CCCCCC4)c4c(C#N)c[nH]c4n3)c3c2OCCO3)cn1 [Example 150, 4-(cycloheptylamino)-2-((8-(1-methyl-1H-pyrazol-4-yl)-2,3-dihydrobenzo[b][1,4]dioxin-5-yl)amino)-7H-pyrrolo[2,3-d] pyrimidine-5-carbonitrile]
< 100 | < 100 | 50 to 200 | COc1cc(-c2ccnn2C)ccc1Nc1nc(NC2CCCC2)c2c(Cl)c[nH]c2n1 [Example 127, 5-chloro-N^4-cyclopentyl-N^2-(2-methoxy-4-(1-methyl-1H-pyrazol-5-yl)phenyl)-7H-pyrrolo[2,3-d] pyrimidine-2,4-diamine]
< 100 | < 100 | 50 to 200 | COc1cc(-c2ccnn2C)ccc1Nc1nc(NC2CCCC(F)(F)C2)c2c(C#N)c[nH]c2n1 (stereo not drawn) [Example 152, 4-((3,3-difluorocyclohexyl)amino)-2-((2-methoxy-4-(1-methyl-1H-pyrazol-5-yl)phenyl)amino)-7H-pyrrolo[2,3-d] pyrimidine-5-carbonitrile]
100 to 1000 | < 100 | < 50 | CN(C)S(=O)(=O)CCNc1nc(Nc2ccc(-c3ccnn3C)c3c2OCCO3)nc2[nH]cc(C#N)c12 [Example 85, 2-((5-cyano-2-((8-(1-methyl-1H-pyrazol-5-yl)-2,3-dihydrobenzo[b][1,4]dioxin-5-yl)amino)-7H-pyrrolo[2,3-d]pyrimidin-4-yl)amino)-N,N-dimethylethane-1-sulfonamide]
< 100 | < 100 | 50 to 200 | Cn1nccc1-c1ccc(Nc2nc(NC3CCOCC3)c3c(C(F)(F)F)c[nH]c3n2)c2c1OCCO2 [Example 107, N^2-(8-(1-methyl-1H-pyrazol-5-yl)-2,3-dihydrobenzo[b][1,4]dioxin-5-yl)-N^4-(tetrahydro-2H-pyran-4-yl)-5-(trifluoromethyl)-7H-pyrrolo[2,3-d] pyrimidine-2,4-diamine]
100 to 1000 | 100 to 1000 | 50 to 200 | COc1cc(-c2ccnn2C)c(F)cc1Nc1nc(NC2CCCCC2)c2c(C#N)c[nH]c2n1 [Example 105, 4-(cyclohexylamino)-2-((5-fluoro-2-methoxy-4-(1-methyl-1H-pyrazol-5-yl)phenyl)amino)-7H-pyrrolo[2,3-d] pyrimidine-5-carbonitrile]
100 to 1000 | 100 to 1000 | 200 to 1000 | COc1cc(-c2ccnn2C)c(F)cc1Nc1nc(NC2CCCC2)c2c(C#N)c[nH]c2n1 [Example 103, 4-(cyclopentylamino)-2-((5-fluoro-2-methoxy-4-(1-methyl-1H-pyrazol-5-yl)phenyl)amino)-7H-pyrrolo[2,3-d] pyrimidine-5-carbonitrile]
< 100 | < 100 | 50 to 200 | COc1cc(Nc2nc(NC3CCCC3)c3c(C#N)c[nH]c3n2)ccc1-c1cnn(C)c1 [Example 136, 4-(cyclopentylamino)-2-((3-methoxy-4-(1-methyl-1H-pyrazol-4-yl)phenyl)amino)-7H-pyrrolo[2,3-d] pyrimidine-5-carbonitrile]
